Measurements taken from paper PMC8286840, “Identifying SARS-CoV-2 antiviral compounds by screening for small molecule inhibitors of Nsp3 papain-like protease” (Biochemical Journal, 2021).
Structures can show the parent of a compound that is named as a salt. Where two headings read alike, the source gives them in different places.

Columns and labels:
[1] = biological target: T1, SARS-CoV-2 PLpro (nsp3 1564–1878) (Severe acute respiratory syndrome coronavirus 2, UniProt P0DTD1); assay: biochemical; design: FRET-quenched peptide (Pro3) cleavage by PLpro, 10 min pre-incubation, slope over 20 min, normalised to no-compound control; conditions: low concentration screen, read-out: % of control remaining
[2] = biological target: T1, SARS-CoV-2 PLpro (nsp3 1564–1878); assay: biochemical; design: FRET-quenched peptide (Pro3) cleavage by PLpro, 10 min pre-incubation, slope over 20 min, normalised to no-compound control; conditions: high concentration screen, read-out: % of control remaining

Work on CC12CCC(CC1)C(C)(C)O2 [Eucalyptol] yielded a remaining activity at 1.25 µM ([1]; Well no.=6874) of 99.2% and a remaining activity at 3.75 µM ([2]; Well no.=6874) of 99.2%.

For COc1ccc([C@@H]2OC[C@@H]3[C@H]2CO[C@H]3c2ccc(OC)c(OC)c2)cc1OC [Eudesmine], the remaining activity at 1.25 µM ([1]; Well no.=3117) was 95.1% and the remaining activity at 3.75 µM ([2]; Well no.=3117) was 88.7%.

Compound C=CCc1ccc(O)c(OC)c1 [Eugenol] has a remaining activity at 1.25 µM ([1]; Well no.=4005) of 92.8% and a remaining activity at 3.75 µM ([2]; Well no.=4005) of 96.7%.

Work on CC(=O)O[C@H]1[C@H]2[C@@H](OC(=O)Cc3ccccc3)[C@@H](C)C[C@]2(OC(C)=O)C(=O)/C(C)=C/[C@@H]2[C@H](CC[C@@]13CO3)C2(C)C [Euphorbiasteroid] yielded a remaining activity at 1.25 µM ([1]; Well no.=3605) of 103% and a remaining activity at 3.75 µM ([2]; Well no.=3605) of 109%.

Cc1cc(C)c2c(c1)[C@@H](N(Cc1cc(C(F)(F)F)cc(C(F)(F)F)c1)c1nnn(C)n1)CCCN2C[C@H]1CC[C@H](C(=O)O)CC1 [Evacetrapib (LY2484595)] showed a remaining activity at 1.25 µM ([1]; Well no.=5320) of 96.7% and a remaining activity at 3.75 µM ([2]; Well no.=5320) of 100%.

For Cc1cc(-c2ccc(/N=N/c3ccc4c(S(=O)(=O)O)cc(S(=O)(=O)O)c(N)c4c3O)c(C)c2)ccc1/N=N/c1ccc2c(S(=O)(=O)O)cc(S(=O)(=O)O)c(N)c2c1O [Evans Blue], the remaining activity at 1.25 µM ([1]; Well no.=8652) was 99.2% and the remaining activity at 3.75 µM ([2]; Well no.=8652) was 92.3%.

In the case of CO[C@H]1C[C@@H]2CC[C@@H](C)[C@@](O)(O2)C(=O)C(=O)N2CCCC[C@H]2C(=O)O[C@H]([C@H](C)C[C@@H]2CC[C@@H](OCCO)[C@H](OC)C2)CC(=O)[C@H](C)/C=C(\C)[C@@H](O)[C@@H](OC)C(=O)[C@H](C)C[C@H](C)/C=C/C=C/C=C/1C [Everolimus], the remaining activity at 1.25 µM ([1]; Well no.=8740) is reported as 90.8% and the remaining activity at 3.75 µM ([2]; Well no.=8740) is reported as 87.3%.

In the case of C=C1C[C@@H]2[C@H](CC[C@]3(C)C(=O)CC[C@@H]23)[C@@]2(C)C=CC(=O)C=C12 [Exemestane], the remaining activity at 1.25 µM ([1]; Well no.=1623) is reported as 104% and the remaining activity at 3.75 µM ([2]; Well no.=1623) is reported as 102%.

Work on CCOC(=O)[C@@H](N)CCC(=O)N[C@@H](CSCc1ccccc1)C(=O)N[C@@H](C(=O)OCC)c1ccccc1 [Ezatiostat] yielded a remaining activity at 1.25 µM ([1]; Well no.=8366) of 91% and a remaining activity at 3.75 µM ([2]; Well no.=8366) of 90.3%.

For O=C1[C@H](CC[C@H](O)c2ccc(F)cc2)[C@@H](c2ccc(O)cc2)N1c1ccc(F)cc1 [Ezetimibe], the remaining activity at 1.25 µM ([1]; Well no.=8428) was 91.6% and the remaining activity at 3.75 µM ([2]; Well no.=8428) was 89.1%.

With NC(N)=Nc1nc(CSCC/C(N)=N/S(N)(=O)=O)cs1 [FAMOTIDINE] the remaining activity at 1.25 µM ([1]; Well no.=471) was 103%, the remaining activity at 1.25 µM ([1]; Well no.=1740) was 101% and the remaining activity at 1.25 µM ([1]; Well no.=6622) was 104%. For the same compound, the remaining activity at 3.75 µM ([2]; Well no.=471) was 104%, the remaining activity at 3.75 µM ([2]; Well no.=1740) was 101% and the remaining activity at 3.75 µM ([2]; Well no.=6622) was 106%.

Compound Cc1nc(C(=O)NCC(=O)O)c(O)c2ccc(Oc3ccccc3)cc12 [FG-4592] has a remaining activity at 1.25 µM ([1]; Well no.=4995) of 102% and a remaining activity at 3.75 µM ([2]; Well no.=4995) of 105%.

Cc1cc([N+](=O)[O-])ccc1NS(=O)(=O)c1cc(Cl)ccc1Cl [FH535] was tested, and the remaining activity at 1.25 µM ([1]; Well no.=8814) was 96.3% and the remaining activity at 3.75 µM ([2]; Well no.=8814) was 98.3%.

For O=S(=O)(NC1CCCCC1)c1ccc2c(c1)C(=NO)c1cc(S(=O)(=O)NC3CCCCC3)ccc1-2 [FIN56], the remaining activity at 1.25 µM ([1]; Well no.=6740) was 99.6%, the remaining activity at 1.25 µM ([1]; Well no.=8726) was 93.4% and the remaining activity at 3.75 µM ([2]; Well no.=6740) was 97.8%. For the same compound, the remaining activity at 3.75 µM ([2]; Well no.=8726) was 94.6%.

C=CC[C@@H]1/C=C(\C)C[C@H](C)C[C@H](OC)[C@H]2O[C@@](O)(C(=O)C(=O)N3CCCC[C@H]3C(=O)O[C@H](/C(C)=C/[C@@H]3CC[C@@H](O)[C@H](OC)C3)[C@H](C)[C@@H](O)CC1=O)[C@H](C)C[C@@H]2OC [FK-506 (Tacrolimus)] was tested, and the remaining activity at 1.25 µM ([1]; Well no.=5168) was 94% and the remaining activity at 3.75 µM ([2]; Well no.=5168) was 97.7%.

In the case of Cc1ccc(C(=O)COC(=O)c2cccc(NC(=O)c3ccc([N+](=O)[O-])cc3[N+](=O)[O-])c2)cc1 [FM19G11], the remaining activity at 1.25 µM ([1]; Well no.=5606) is reported as 93.7% and the remaining activity at 3.75 µM ([2]; Well no.=5606) is reported as 96.9%.

For COC(=O)c1c(C)[nH]c(C)c1C(=O)c1ccccc1Cc1ccccc1 [FPL 64176], the remaining activity at 1.25 µM ([1]; Well no.=713) was 97.6% and the remaining activity at 3.75 µM ([2]; Well no.=713) was 94.1%.

Work on COC(=O)[C@H](CCSC)NC(=O)c1ccc(NC[C@@H](N)CS)cc1-c1ccccc1 [FTI-277 (hydrochloride)] yielded a remaining activity at 1.25 µM ([1]; Well no.=8508) of 101% and a remaining activity at 3.75 µM ([2]; Well no.=8508) of 102%.

CC(=O)OCC(CCn1cnc2cnc(N)nc21)COC(C)=O [Famciclovir] showed a remaining activity at 1.25 µM ([1]; Well no.=2074) of 101% and a remaining activity at 3.75 µM ([2]; Well no.=2074) of 104%.

In the case of CC(C)=CCC/C(C)=C/CC/C(C)=C/CSc1ccccc1C(=O)O [Farnesylthiosalicylic acid], the remaining activity at 1.25 µM ([1]; Well no.=567) is reported as 102% and the remaining activity at 3.75 µM ([2]; Well no.=567) is reported as 102%.

O=C1c2ccccc2-[n+]2ccc3c([nH]c4ccccc43)c21 [Fascaplysin, Synthetic] was tested, and the remaining activity at 1.25 µM ([1]; Well no.=2458) was 89% and the remaining activity at 3.75 µM ([2]; Well no.=2458) was 82.7%.

O=S(=O)(c1cccc2cnccc12)N1CCCNCC1 [Fasudil hydrochloride - 1-(5-Isoquinolinesulfonyl)homopiperazine hydrochloride] gave a remaining activity at 1.25 µM ([1]; Well no.=2338) of 97.4% and a remaining activity at 3.75 µM ([2]; Well no.=2338) of 99%.

CCCc1cc(-c2nc(-c3ccc(C)cc3)cs2)ccn1 [Fatostatin HBr] gave a remaining activity at 1.25 µM ([1]; Well no.=8822) of 94.2% and a remaining activity at 3.75 µM ([2]; Well no.=8822) of 92.8%.

In the case of NC(=O)OCC(COC(N)=O)c1ccccc1 [Felbamate], the remaining activity at 1.25 µM ([1]; Well no.=609) is reported as 101%, the remaining activity at 1.25 µM ([1]; Well no.=1543) is reported as 102% and the remaining activity at 3.75 µM ([2]; Well no.=609) is reported as 104%. It also gave a remaining activity at 3.75 µM ([2]; Well no.=1543) of 101%.

CCOC(=O)C1=C(C)NC(C)=C(C(=O)OC)C1c1cccc(Cl)c1Cl (stereo not shown) [Felodipine] gave a remaining activity at 1.25 µM ([1]; Well no.=521) of 106%, a remaining activity at 1.25 µM ([1]; Well no.=1757) of 99.7% and a remaining activity at 3.75 µM ([2]; Well no.=1757) of 102%.

For COC(=O)Nc1nc2cc(Sc3ccccc3)ccc2[nH]1 [Fenbendazole], the remaining activity at 1.25 µM ([1]; Well no.=2076) was 105% and the remaining activity at 3.75 µM ([2]; Well no.=2076) was 102%.

Compound O=C(O)CCC(=O)c1ccc(-c2ccccc2)cc1 [Fenbufen] has a remaining activity at 1.25 µM ([1]; Well no.=2078) of 100% and a remaining activity at 3.75 µM ([2]; Well no.=2078) of 102%.

In the case of CC(C)OC(=O)C(C)(C)Oc1ccc(C(=O)c2ccc(Cl)cc2)cc1 [Fenofibrate], the remaining activity at 1.25 µM ([1]; Well no.=421) is reported as 97.6%, the remaining activity at 1.25 µM ([1]; Well no.=2084) is reported as 99.9% and the remaining activity at 3.75 µM ([2]; Well no.=421) is reported as 101%. For the same compound, the remaining activity at 3.75 µM ([2]; Well no.=2084) was 102%.

With CC(C)(Oc1ccc(C(=O)c2ccc(Cl)cc2)cc1)C(=O)O [Fenofibric acid] the remaining activity at 1.25 µM ([1]; Well no.=8204) was 106% and the remaining activity at 3.75 µM ([2]; Well no.=8204) was 104%.

With Oc1ccc(C2CNCCc3c2cc(O)c(O)c3Cl)cc1 (stereo not shown) [Fenoldopam (mesylate)] the remaining activity at 1.25 µM ([1]; Well no.=6267) was 106% and the remaining activity at 3.75 µM ([2]; Well no.=6267) was 103%.

With Oc1ccc(C2CNCCc3c2cc(O)c(O)c3Cl)cc1 (stereo not shown) [Fenoldopam bromide] the remaining activity at 1.25 µM ([1]; Well no.=757) was 98.2% and the remaining activity at 3.75 µM ([2]; Well no.=757) was 96.8%.
